This note sets out measurements from patent US6011060A, “Chiral phenyldihydrofuranones as PDE-IV inhibitors” (Schering Aktiengesellschaft, priority 1996, dated 2000).

The assay addresses radiolabeled Rolipram of rat brain homogenates. Description: displacement of radiolabeled Rolipram in rat brain homogenates, in vitro (Eur. J. Pharmacol. 127, 105-115 (1986)). In kind it is binding. To be noted: 3H-rolipram tracer, IC50 converted: Ki = IC50/[1+(L/KD)]. The protocol: The action on the central nervous system is determined in vitro by measuring the displacement capacity of radiolabeled Rolipram of rat brain homogenates (Eur. J. Pharmacol., Vol. 127, 105-115 (1986)). The IC50 values (that concentration in which 50% inhibiting action occurs) were converted into inhibition constant Ki, which is calculated according to the formula below: […]
in which L means the concentration of the radioactive tracer and KD means the dissociation constant of the ^3 H-rolipram bond, which is determined separately.

What is called Ki is the equilibrium dissociation constant of an inhibitor or competing ligand from its target. A higher Ki goes with weaker binding. On to `COc1ccc([C@@]2(C)CCC(=O)O2)cc1OC1CCCC1` [cyclopentyl, (R)-(+)-enantiomer, (R)-(+)-5-(3-cyclopentyloxy-4-methoxyphenyl)-5-methyl-dihydro-2-furanone], for which the affinity, expressed as Ki, was 2.8 nM.

Consider `COc1ccc([C@@]2(C)CCC(=O)O2)cc1OCC1CC1` [cyclopropylmethyl, (R)-(+)-enantiomer, (R)-(+)-5-(3-cyclopropylmethoxy-4-methoxyphenyl)-5-methyl-dihydro-2-furanone], for which the Ki worked out at 2.2 nM.

The compound `COc1ccc(C2(C)CCC(=O)O2)cc1OC1CCCC1` (racemic) [cyclopentyl, Racemate, (R,S)-5-(3-cyclopentyloxy-4-methoxyphenyl)-5-methyl-dihydro-2-furanone] had a Ki of 0.5 nM.

As to `COc1ccc(C2(C)CCC(=O)O2)cc1OC1CCC1` (racemic) [cyclobutyl, Racemate, (R,S)-5-(3-cyclobutyloxy-4-methoxyphenyl)-5-methyl-dihydro-2-furanone], the inhibition constant Ki is 0.38 nM.

With `COc1ccc(C2(C)CCC(=O)O2)cc1OCC(C)C` (racemic) [isobutyl, Racemate, (R,S)-5-(3-isobutyloxy-4-methoxyphenyl)-5-methyl-dihydro-2-furanone], the affinity, expressed as Ki, was 0.48 nM. This Ki and that of the compound before are within 1.5-fold of each other.

The compound `CCCOc1cc([C@@]2(C)CCC(=O)O2)ccc1OC` [propyl, (R)-(+)-enantiomer, (R)-(+)-5-(4-methoxy-3-propoxyphenyl)-5-methyl-dihydro-2-furanone] had a Ki of 7.3 nM.

As to `COc1ccc([C@]2(C)CCC(=O)O2)cc1OC1CCC1` [cyclobutyl, (S)-(-)-enantiomer, (S)-(-)-5-(3-cyclobutyloxy-4-methoxyphenyl)-5-methyl-dihydro-2-furanone], the Ki amounted to 0.2 nM.

With `CCCOc1cc(C2(C)CCC(=O)O2)ccc1OC` (racemic) [propyl, Racemate, (R,S)-5-(4-methoxy-3-propoxyphenyl)-5-methyl-dihydro-2-furanone], affinity was put at a Ki of 0.74 nM.

In turn, `COc1ccc([C@@]2(C)CCC(=O)O2)cc1OCC(C)C` [isobutyl, (R)-(+)-enantiomer, (R)-(+)-5-(3-isobutyloxy-4-methoxyphenyl)-5-methyl-dihydro-2-furanone] gave a Ki of 2.3 nM.

On to `COc1ccc([C@]2(C)CCC(=O)O2)cc1OCC1CC1` [cyclopropylmethyl, (S)-(-)-enantiomer, (S)-(-)-5-(3-cyclopropylmethoxy-4-methoxyphenyl)-5-methyl-dihydro-2-furanone], for which affinity was put at a Ki of 0.13 nM.

In turn, `COc1ccc([C@]2(C)CCC(=O)O2)cc1OCC(C)C` [isobutyl, (S)-(-)-enantiomer, (S)-(-)-5-(3-isobutyloxy-4-methoxyphenyl)-5-methyl-dihydro-2-furanone] displayed a Ki of 0.25 nM.

Regarding `COc1ccc(C2(C)CCC(=O)O2)cc1OCC1CC1` (racemic) [cyclopropylmethyl, Racemate, (R,S)-5-(3-cyclopropylmethoxy-4-methoxyphenyl)-5-methyl-dihydro-2-furanone], the Ki came out at 0.21 nM.

With `COc1ccc([C@@]2(C)CCC(=O)O2)cc1OC1CCC1` [cyclobutyl, (R)-(+)-enantiomer, (R)-(+)-5-(3-cyclobutyloxy-4-methoxyphenyl)-5-methyl-dihydro-2-furanone], the Ki is 1.9 nM. Compared with the last compound, the Ki is about 9-fold higher.

For the compound `CCCOc1cc([C@]2(C)CCC(=O)O2)ccc1OC` [propyl, (S)-(-)-enantiomer, (S)-(-)-5-(4-methoxy-3-propoxyphenyl)-5-methyl-dihydro-2-furanone], the affinity, expressed as Ki, was 0.47 nM.

In turn, `COc1ccc([C@]2(C)CCC(=O)O2)cc1OC1CCCC1` [cyclopentyl, (S)-(-)-enantiomer, (S)-(-)-5-(3-cyclopentyloxy-4-methoxyphenyl)-5-methyl-dihydro-2-furanone] registered an inhibition constant Ki of 0.28 nM.
